Values after ≈ are worked out from the molar mass of the structure shown. Active and inactive are the calls of the source. The rule behind the calls is not given here.

The subject of assay [1] is Bacillus subtilis. The assay can be described thus: Antibacterial activity against Bacillus subtilis MTCC 121 by NCCLS broth macrodilution method. The format is functional.
The subject of assay [2] is Pseudomonas aeruginosa. Put plainly: microbe, parasite or virus in culture. The note with it: MTCC 741, 24 h, read-out: DIZ.
Assay [3] has as its system Bacillus subtilis. The assay can be described thus: Antibacterial activity against Bacillus subtilis MTCC 121 at 4 mg/ml after 24 hr by agar well diffusion method. The class given is functional. The note with it: MTCC 121, 24 h, read-out: DIZ. In general terms: Agar diffusion results depend on both activity and mobility in agar.
Assay [4] relates to Staphylococcus aureus. The assay can be described thus: Antibacterial activity against Staphylococcus aureus MTCC 96 at 4 mg/ml after 24 hr by agar well diffusion method. The format is functional. The note with it: MTCC 96, 24 h, read-out: DIZ.
In assay [5] the test system is Staphylococcus aureus. Put plainly: Antibacterial activity against Staphylococcus aureus MTCC 96 by NCCLS broth macrodilution method. The class given is functional.
Assay [6] has as its system Rattus norvegicus. Put plainly: Anti-inflammatory activity in Rattus norvegicus Wistar albino (rat) assessed as inhibition of carrageenan-induced paw edema at 10 mg/kg, ip administered for 30 min prior to carrageenan challenge measured at 4 hr relative to control. The format is functional. The note with it: route intraperitoneal. On the technique in general: The carrageenan paw model is a standard test of acute inflammation.

Assay [7] relates to Rattus norvegicus. Put plainly: Anti-inflammatory activity in Rattus norvegicus Wistar albino (rat) assessed as inhibition of carrageenan-induced paw edema at 10 mg/kg, ip administered for 30 min prior to carrageenan challenge measured at 3 hr relative to control. The format is functional. The note with it: route intraperitoneal.
The species named for assay [8] is Rattus norvegicus. The assay can be described thus: animal or person. The note with it: Wistar albino, ip, read-out: INH.
The species entered for assay [9] is Rattus norvegicus. The assay can be described thus: animal or person. The note with it: Wistar albino, ip, read-out: INH. This is another data set of the same source.
The test system of assay [10] is Rattus norvegicus. The assay can be described thus: Anti-inflammatory activity in Rattus norvegicus Wistar albino (rat) assessed as inhibition of carrageenan-induced paw edema at 50 mg/kg, po administered for 30 min prior to carrageenan challenge measured at 4 hr relative to control. The format is functional.
In a further assay the test system is Escherichia coli. The assay can be described thus: Antibacterial activity against Escherichia coli MTCC 1652 at 4 mg/ml after 24 hr by agar well diffusion method. The format is functional, organism-based.
In assay [11] the test system is Rattus norvegicus. Put plainly: Anti-inflammatory activity in Rattus norvegicus Wistar albino (rat) assessed as inhibition of carrageenan-induced paw edema at 50 mg/kg, po administered for 30 min prior to carrageenan challenge measured at 2 hr relative to control. The class given is functional.
Assay [12] relates to Pseudomonas aeruginosa. The note with it: MTCC 741, 4 mg/ml.
The test system of assay [13] is Rattus norvegicus. Put plainly: Anti-inflammatory activity in Rattus norvegicus Wistar albino (rat) assessed as inhibition of carrageenan-induced paw edema at 50 mg/kg, po administered for 30 min prior to carrageenan challenge measured at 1 hr relative to control. The class given is functional.
Assay [14] has as its system Rattus norvegicus. The assay can be described thus: Anti-inflammatory activity in Rattus norvegicus Wistar albino (rat) assessed as inhibition of carrageenan-induced paw edema at 50 mg/kg, po administered for 30 min prior to carrageenan challenge measured at 3 hr relative to control. The class given is functional.

As to `O=C(O)c1cn(C2CC2)c2cc(N3CCNCC3)c(F)cc2c1=O` [CIPROFLOXACIN], the MIC against Bacillus subtilis [1] and in the assay on Staphylococcus aureus [5] was 5 µg/mL (≈ 15.1 µM) each time. The zone of inhibition at 4000 µg/mL with Pseudomonas aeruginosa [2] is 23.3 mm; in the assay with Bacillus subtilis [3], 25.6 mm; with Staphylococcus aureus [4] it was 26.3 mm.
With `COc1ccc2c(c1)c(CC(=O)O)c(C)n2C(=O)c1ccc(Cl)cc1` [INDOMETHACIN], the inhibition in vivo at 10 mg/kg in the assay with Rattus norvegicus [6] worked out at 78%; in the assay with Rattus norvegicus [7] it was 78%; in the assay filed under Rattus norvegicus [8] it was 79%; in the assay listed under Rattus norvegicus [9], 41%.
Turning to `Cc1ccc(-c2csc(N/N=C/c3cn(-c4ccc(S(N)(=O)=O)cc4)nc3-c3ccc(C)cc3)n2)cc1`, the MIC against Bacillus subtilis [1] and against Staphylococcus aureus [5] was greater than 128 µg/mL each time. Moreover, the inhibition in vivo at 50 mg/kg was determined as 61% in the assay on Rattus norvegicus [10], 72% in the assay with Rattus norvegicus [11], 24% in the assay with Rattus norvegicus [13] and 75% in the assay on Rattus norvegicus [14]. In addition, in the assay on Escherichia coli, the “diameter of the inhibition zone (DIZ)” value was “inactive”. The values for the zone of inhibition at 4000 µg/mL in the assay with Bacillus subtilis [3] and in the assay on Staphylococcus aureus [4] were 14 mm and 13.6 mm, respectively. Moreover, the DIZ result in the assay on Pseudomonas aeruginosa [12] was “inactive”.
As to `Cc1ccc(-c2nn(-c3ccc(S(N)(=O)=O)cc3)cc2/C=N/Nc2nc(-c3ccc(Cl)cc3)cs2)cc1`, the MIC in the assay with Bacillus subtilis [1] and against Staphylococcus aureus [5] was greater than 128 µg/mL each time. For the same compound, the inhibition in vivo at 50 mg/kg worked out at 57% in the assay with Rattus norvegicus [10], 60% in the assay on Rattus norvegicus [11], 32% with Rattus norvegicus [13] and 60% with Rattus norvegicus [14]. For the same compound, in the assay on Escherichia coli, the “diameter of the inhibition zone (DIZ)” value is “inactive”. Besides, the figures for the zone of inhibition at 4000 µg/mL in the assay on Bacillus subtilis [3] and in the assay on Staphylococcus aureus [4] were 15.3 mm and 14.6 mm, respectively. For the same compound, the DIZ result with Pseudomonas aeruginosa [12] was “inactive”.
Turning to `Cc1ccc(-c2csc(N/N=C/c3cn(-c4ccc(S(N)(=O)=O)cc4)nc3-c3ccccc3)n2)cc1`, the MIC against Bacillus subtilis [1] and with Staphylococcus aureus [5] was greater than 128 µg/mL throughout. For the same compound, the inhibition in vivo at 50 mg/kg with Rattus norvegicus [10] turned out to be 60%; in the assay with Rattus norvegicus [11], 65%; with Rattus norvegicus [13] it was 28%; with Rattus norvegicus [14] it was 57%. Moreover, the “diameter of the inhibition zone (DIZ)” value in the assay with Escherichia coli was “inactive”. In addition, the zone of inhibition at 4000 µg/mL is 14.6 mm in the assay with Bacillus subtilis [3] and 15 mm in the assay on Staphylococcus aureus [4]. Besides, in the assay with Pseudomonas aeruginosa [12], the DIZ entry was “inactive”.
With `COc1ccc(-c2nn(-c3ccc(S(N)(=O)=O)cc3)cc2/C=N/Nc2nc(-c3ccc(Cl)cc3)cs2)cc1`, the MIC against Bacillus subtilis [1] and against Staphylococcus aureus [5] was greater than 128 µg/mL throughout. The inhibition in vivo at 50 mg/kg in the assay with Rattus norvegicus [10] came to 71%; in the assay on Rattus norvegicus [11], 66%; with Rattus norvegicus [13] it was 32%; in the assay with Rattus norvegicus [14], 69%. For the same compound, the “diameter of the inhibition zone (DIZ)” value with Escherichia coli is “inactive”. In addition, the zone of inhibition at 4000 µg/mL in the assay on Bacillus subtilis [3] came out at 14.3 mm; in the assay on Staphylococcus aureus [4], 13.6 mm. Also, the DIZ result in the assay on Pseudomonas aeruginosa [12] is “inactive”.

Source of the values: ChEMBL document CHEMBL3046519, “Synthesis and biological evaluation of some pyrazole derivatives as anti-inflammatoryantibacterial agents” (2012).
